Assay results reported in patent US10167262B2, “Herbicidal substituted 3-arylpyrazoles” (FMC CORPORATION, priority 2014, dated 2019).

Assays:
Format in all cases: in vivo
[1] = system: field violet (Viola arvensis); test: Test D postemergence controlled growth environment test, plant response rating 0-100
From the text: (§1) Seeds of plant species selected from bluegrass (annual bluegrass, Poa annua), blackgrass (Alopecurus myosuroides), canarygrass (Phalaris minor), chickweed (common chickweed, Stellaria media), galium (catchweed bedstraw, Galium aparine), downy bromegrass (Bromus tectorum), field violet (Viola arvensis), green foxtail (Setaria viridis), deadnettle (henbit deadnettle, Lamium amplexicaule), Italian ryegrass (Lolium multiflorum), kochia (Kochia scoparia), lambsquarters (Chenopodium album), oilseed rape (Brassica napus), pigweed (Amaranthus retroflexus), Russian thistle (Salsola kali), spring barley (Hordeum vulgare), spring wheat (Triticum aestivum), wild buckwheat (Polygonum convolvulus), wild mustard (Sinapis arvensis), wild oat (Avena fatua), windgrass (Apera spica-venti), winter barley (Hordeum vulgare), and winter wheat (Triticum aestivum) were planted in pots containing Redi-Earth® planting medium (Scotts Company, 14111 Scottslawn Road, Marysville, Ohio 43041) comprising spaghnum peat moss, vermiculite, wetting agent and starter nutrients and treated with postemergence applications of test chemicals formulated in a non-phytotoxic solvent mixture which included a surfactant. Plants ranged in height from 2 to 18 cm (1- to 4-leaf stage). Treated plants and controls were maintained in a controlled growth environment for 14 days after which time all species were compared to controls and visually evaluated. Plant response ratings, summarized in Table D, are based on a scale of 0 to 100 where 0 is no effect and 100 is complete control. A dash (-) response means no test result.

[2] = system: pigweed (Amaranthus retroflexus); test: as above
From the text: as §1

[3] = system: wild buckwheat (Polygonum convolvulus); test: as above
From the text: as §1

[4] = system: large (Lg) crabgrass (Digitaria sanguinalis); test: Test E pre-/postemergence greenhouse test, plant response rating 0-100; conditions: Preemergence, scale 0 to 100
[5] = system: green foxtail (Setaria viridis); test: as above; conditions: Preemergence, scale 0 to 100
[6] = system: goosegrass (Eleusine indica); test: as above; conditions: Preemergence, scale 0 to 100
[7] = system: johnsongrass (Sorghum halepense); test: as above; conditions: Preemergence, scale 0 to 100
[8] = system: lambsquarters (Chenopodium album); test: as above; conditions: Preemergence, scale 0 to 100
Summary of the method: (§2)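 Preemergence application to planted silt loam and postemergence application to 2–18 cm seedlings are run simultaneously. Evaluation is visual against controls after 14 to 21 days, scored from 0 (no effect) to 100 (complete control).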

[9] = system: nightshade (eastern black nightshade, Solanum ptycanthum); test: as above; conditions: Preemergence, scale 0 to 100
Summary of the method: as §2

[10] = system: morningglory (Ipomoea coccinea); test: as above; conditions: Preemergence, scale 0 to 100
[11] = system: yellow nutsedge (Cyperus esculentus); test: as above; conditions: Preemergence, scale 0 to 100
[12] = system: waterhemp_RES1, (ALS & Triazine resistant common waterhemp, Amaranthus rudis); test: Test E postemergence greenhouse test, plant response rating 0-100; conditions: scale 0 to 100
Summary of the method: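 Visual ratings, 0 (no effect) to 100 (complete control), made versus controls 14–21 days after postemergence application in the greenhouse. Plants were at 1- to 4-leaf stage (2–18 cm) in peat moss/vermiculite potting medium.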

C#CCn1cc(C(=O)c2ccccc2)c(-c2cc(Cl)cc(Cl)c2)n1 [Compound 39, [3-(3,5-dichlorophenyl)-1-(2-propyn-1-yl)-1H-pyrazol-4-yl]phenylmethanone]
Plant response rating, Field Violet ([1]; 16 g ai/ha): 0 | Plant response rating, Field Violet ([1]; 31 g ai/ha): 0 | Plant response rating, Field Violet ([1]; 62 g ai/ha): 10 | Plant response rating, Field Violet ([1]; 125 g ai/ha): 10 | Plant response rating, Pigweed ([2]; 16 g ai/ha): 30 | Plant response rating, Pigweed ([2]; 31 g ai/ha): 30 | Plant response rating, Pigweed ([2]; 62 g ai/ha): 50 | Plant response rating, Pigweed ([2]; 125 g ai/ha): 75 | Plant response rating, Pigweed ([2]; 250 g ai/ha): 80 | Plant response rating, Buckwheat, Wild ([3]; 16 g ai/ha): 0 | Plant response rating, Buckwheat, Wild ([3]; 31 g ai/ha): 0 | Plant response rating, Buckwheat, Wild ([3]; 62 g ai/ha): 0 | Plant response rating, Buckwheat, Wild ([3]; 125 g ai/ha): 10 | Plant response rating, Buckwheat, Wild ([3]; 250 g ai/ha): 20 | Crabgrass, Large plant response rating ([4]; 62 g ai/ha): 0 | Crabgrass, Large plant response rating ([4]; 125 g ai/ha): 0 | Crabgrass, Large plant response rating ([4]; 250 g ai/ha): 0 | Crabgrass, Large plant response rating ([4]; 500 g ai/ha): 0 | Foxtail, Green plant response rating ([5]; 62 g ai/ha): 0 | Foxtail, Green plant response rating ([5]; 125 g ai/ha): 0 | Foxtail, Green plant response rating ([5]; 250 g ai/ha): 0 | Foxtail, Green plant response rating ([5]; 500 g ai/ha): 0 | Goosegrass plant response rating ([6]; 62 g ai/ha): 0 | Goosegrass plant response rating ([6]; 125 g ai/ha): 0 | Goosegrass plant response rating ([6]; 250 g ai/ha): 0 | Goosegrass plant response rating ([6]; 500 g ai/ha): 0 | Johnsongrass plant response rating ([7]; 62 g ai/ha): 0 | Johnsongrass plant response rating ([7]; 125 g ai/ha): 0 | Johnsongrass plant response rating ([7]; 250 g ai/ha): 0 | Johnsongrass plant response rating ([7]; 500 g ai/ha): 0 | Lambsquarters plant response rating ([8]; 62 g ai/ha): 90 | Lambsquarters plant response rating ([8]; 125 g ai/ha): 95 | Lambsquarters plant response rating ([8]; 250 g ai/ha): 90 | Lambsquarters plant response rating ([8]; 500 g ai/ha): 100 | Nightshade plant response rating ([9]; 62 g ai/ha): 0 | Nightshade plant response rating ([9]; 125 g ai/ha): 0 | Nightshade plant response rating ([9]; 250 g ai/ha): 100 | Nightshade plant response rating ([9]; 500 g ai/ha): 95 | Morningglory plant response rating ([10]; 62 g ai/ha): 0 | Morningglory plant response rating ([10]; 125 g ai/ha): 0 | Morningglory plant response rating ([10]; 250 g ai/ha): 0 | Morningglory plant response rating ([10]; 500 g ai/ha): 0 | Nutsedge, Yellow plant response rating ([11]; 62 g ai/ha): 0 | Nutsedge, Yellow plant response rating ([11]; 125 g ai/ha): 0 | Nutsedge, Yellow plant response rating ([11]; 250 g ai/ha): 0 | Nutsedge, Yellow plant response rating ([11]; 500 g ai/ha): 0 | Plant response rating, Waterhemp_RES1 ([12]; 31 g ai/ha): 85 | Plant response rating, Waterhemp_RES1 ([12]; 62 g ai/ha): 85 | Plant response rating, Waterhemp_RES1 ([12]; 125 g ai/ha): 90 | Plant response rating, Waterhemp_RES1 ([12]; 250 g ai/ha): 90 | Plant response rating, Waterhemp_RES1 ([12]; 500 g ai/ha): 95
